Reference: patent publication US5230998A, “Method for the prescreening of drugs targeted to the V3 hypervariable loop of the HIV-1 envelope glycoprotein gp 120” (priority 1991, dated 1993)
≈ marks a conversion by molar mass, not a printed value.

Key:
[1] = target: T1, HIV-1 gp120 V3 hypervariable loop (Human immunodeficiency virus type 1 group M subtype B, UniProt P03375); assay: biochemical; format: binding
T1 construct: Polystyrene plates coated with recombinant gp120 and gp160, respectively; purchased American Bio-Technologies, Inc., Cambridge, Mass; host or cells: baculovirus expression system
How it was run: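 Inhibition RIA/ELISA: gp120/gp160-coated or synthetic peptide-coated wells (gp120/gp41 of HIV-1 BH10 and V3 loops of 21 isolates) incubated overnight at 25 °C with rabbit anti-peptide antisera (1:150, or 1:1,000 for V3) ± compound (ATA 50 μg/ml). Bound IgG detected with 125I-anti-rabbit IgG; percent inhibition versus no-compound control.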

HIV-1 = assay: Antiviral activity: inhibition of P24 production in MT-2 cells; format: cell-based, HIV-1 IIIB
Description: All chemicals were tested at serial two-fold dilutions (1.25-80 μg/ml, prepared from a stock solution containing 10 mg/ml in dimethylsulfoxide). The chemicals were obtained from Aldrich, Milwaukee, Wis. or were synthesized. Their inhibitory activity was determined by two distinct methods, based on inhibition of synthesis of core protein P24 and on protection by the chemicals of cells against the cytopathic effect of HIV-1 (colorimetric method) respectively.
The chemicals were serially diluted in RPMI 1640 medium without phenol red (GIBCO, Grand Island, N.Y.) containing 10% fetal calf serum (FCS). Aliquots of the diluted solutions were added to wells of 96 well plates and mixed with an equal volume of diluted HIV-1 [multiplicity of infection (MOI) =0.0045]. After incubation for 1 hour at 37° C., 25 μl of polybrene (1 μg/ml) treated MT-2 cells (Harada, S., Koyanagi, Y., Yamamoto, N., (1985), "Infection of HTLV-III/LAV in HTLV-I-carrying Cells MT-2 and MT-4 and Application in a Plaque Assay", Science, 229, 563-566), (5,000 cells/well) were added. The mixture was incubated for 1 hour at 37° C. and the volume was adjusted with RPMI 1640 medium with 10% FCS to 200 μl. On the fourth day after incubation at 37° C., 100 μl of culture supernatants were collected from each well and equal volumes of fresh medium were added to the wells. The supernatants were assayed for P24 using a kit from Coulter Immunology (Hialeah, Fla.). On the sixth day, an indicator XTT tetrazolium dye (1 mg/ml; 50 μl/well; PolySciences, Inc., Warrington, Penna.) was added to the cells. After 4 hours, intracellular formazan was determined colorimetrically at 450 nm.
^c Chemicals with inhibitory activity in ELISA (RIA) tests were teste
^d EC50 = concentration at which the production of P24 was […]

Row | SMILES | extent of inhibition of reaction between gp120 and anti-V3 antibodies versus antibody dilution ([1]; ATA 50 μg/ml, FIG. 3) | inhibition of attachment to gp120 of antibodies against the (303-338) segment ([1]; ATA 50 μg/ml, antisera 1:150, significant inhibition (FIG. 1A)) | Inhibitory activity ([1]; Table 1, reaction between HIV-1 gp120 and anti-V3 loop antibodies) | inhibition at 50 µg/mL ([1]; read-out: percentage of inhibition) | EC50 (HIV-1; Human immunodeficiency virus 1, MT2, read-out: EC50 (concentration at which the production of P24 was reduced to 50% of that detected in control cultures)) | inhibition at 40 µg/mL (HIV-1; Human immunodeficiency virus 1, MT2, read-out: percentage of inhibition of P24 nucleoprotein production)
1 | O=C(O)C1=CC(=C(c2ccc(O)c(C(=O)O)c2)c2ccc(O)c(C(=O)O)c2)C=CC1=O [substance #122, aurintricarboxylic acid] | correlated with the dilution of antibodies | ≥ 22% | – | – | – | –
2 | C=Cc1c(C)c2cc3nc(c(CC(=O)O)c4[nH]c(cc5nc(cc1[nH]2)C(C)=C5CC)c(C)c4C(=O)O)[C@@H](CCC(=O)O)[C@@H]3C [substance #149, chlorine e6] | – | – | + | 76.3% | 0.8 µg/mL (≈ 1.34 µM) | 100%
